In brackets after ≈: the same amount, converted by molar mass. Where two headings read alike, the source gives them in different places.
Assays:
MRSE CAN-ICU 61589 = experiment: MIC, broth macrodilution (CLSI); type: cell-based, methicillin-resistant Staphylococcus epidermidis
Description: (§1) All experiments were performed in duplicate.
(§2) Bacterial isolates studied included both reference strains obtained from the American Type Culture Collection (ATCC) as well as clinical strains obtained from the CAN-ICU study which was a national surveillance study assessing the prevalence of antimicrobial resistant pathogens in Canadian intensive care units (Zhanel et al., 2008). Isolates were kept frozen in skim milk at −80° C. until minimum inhibitory concentration (MIC) testing was carried out. Following two subcultures from frozen stock, the in vitro activities of peptides were determined by macrobroth dilution in accordance with the Clinical and Laboratory Standards Institute (CLSI) 2006 guidelines (Zhanel et al., 2008). Stock solutions of peptides were prepared and dilutions made as described by CLSI. Test tubes contained doubling antimicrobial dilutions of cation adjusted Mueller-Hinton broth and inoculated to achieve a final concentration of approximately 5×10^5 cfu/ml then incubated in ambient air for 24 hours prior to reading. Colony counts were performed periodically to confirm inocula. Quality control was regularly performed using ATCC QC organisms.

S. pneumoniae ATCC 49619 = experiment: MIC, broth macrodilution (CLSI), broth with 5% laked horse blood; type: cell-based, Streptococcus pneumoniae; conditions: S. pneumoniae ATCC49619
Description: as §1, §2

P. aeruginosa ATCC 27853 = experiment: MIC, broth macrodilution (CLSI); type: cell-based; conditions: P. aeruginosa ATCC27853
Description: as §1, §2

E. coli ATCC 25922 = experiment: MIC, broth macrodilution (CLSI); type: cell-based; conditions: E. coli ATCC25922
Description: as §1, §2

[1] = system: E. coli (gentamicin-resistant) CAN-ICU 61714; experiment: MIC, broth macrodilution (CLSI); type: cell-based; conditions: E. coli CAN-ICU 61714
Description: as §1, §2

[2] = system: E. coli (amikacin MIC 32 mg/L) CAN-ICU 63074; experiment: MIC, broth macrodilution (CLSI); type: cell-based; conditions: E. coli CAN-ICU 63074
Description: as §1, §2

[3] = system: P. aeruginosa (gentamicin-resistant) CAN-ICU 62308; experiment: MIC, broth macrodilution (CLSI); type: cell-based; conditions: P. aeruginosa CAN-ICU 62308
Description: as §1, §2

E. faecium ATCC 27270 = experiment: MIC, broth macrodilution (CLSI); type: cell-based, Enterococcus faecium; conditions: E. facium ATCC27270
Description: as §1, §2

E. faecalis ATCC 29212 = experiment: MIC, broth macrodilution (CLSI); type: cell-based, Enterococcus faecalis; conditions: E. faecalis ATCC29212
Description: as §1, §2

S. aureus ATCC 29213 = experiment: MIC, broth macrodilution (CLSI); type: cell-based, Staphylococcus aureus; conditions: S. aureus ATCC29213
Description: as §1, §2

MRSA ATCC 33592 = experiment: MIC, broth macrodilution (CLSI); type: cell-based, methicillin-resistant Staphylococcus aureus; conditions: MRSA ATCC33592
Description: as §1, §2

[4] = system: S. epidermidis ATCC 14990; experiment: MIC, broth macrodilution (CLSI); type: cell-based, Staphylococcus epidermidis; conditions: S. epidermidis ATCC14990
Description: as §1, §2

[5] = system: sheep red blood cell (erythrocytes); experiment: Hemolytic assay (in vitro toxicity)
Description: Antibacterial activity against Gram-positive and Gram-negative microorganisms was tested via broth macrodilution tests using CLSI methodology (Zhanel et al., 2008). Stock solutions of cationic lipids in water were brought to a concentration of 512 mg/L. Organisms were subcultured and isolated on blood agar, suspended in 3 mL of Mueller-Hinton broth at the turbidity of a […], and diluted to approximately 10^5 cfu/mL before introduction into tubes containing serially diluted lipopeptide antibiotic in Mueller-Hinton broth. Activity testing against S. pneumoniae used broth supplemented with laked horse blood to give 5% horse blood in experimental tubes. Turbidity of lipopeptide solution in broth required creation of control tubes lacking organisms serving as turbidity controls. All tubes were incubated overnight for 16-20 h at 37° C. […] All experiments were performed in duplicate. In-vitro toxicity was determined using a sheep red blood cell hemolytic assay as previously described (Dathe et al., 1996).
In vitro toxicity was determined using a sheep red blood cell (erythrocytes) hemolytic assay (Dathe et al., 1996). […] Erythrocytes were washed and resuspended in Tris buffered saline. The cell suspension was combined with varying concentrations (low to very high) of test and control antimicrobials (e.g., aminoglycosides and APTCs). The samples were centrifuged and the absorbance of the supernatants measured at 540 nm. Tris buffered saline and Triton X were used as negative and positive controls, respectively. The toxicity was assessed by percent hemolysis.

[6] = 100 mg/L, sheep erythrocytes, percent hemolysis

SMILES	MIC (MRSE CAN-ICU 61589)	MIC (S. pneumoniae ATCC 49619)	MIC (P. aeruginosa ATCC 27853)	MIC (E. coli ATCC 25922)	MIC [1]	MIC [2]	MIC [3]	MIC (E. faecium ATCC 27270)	MIC (E. faecalis ATCC 29212)	MIC (S. aureus ATCC 29213)	MIC (MRSA ATCC 33592)	MIC [4]	hemolytic activity at 100 mg/L [5, 6]	hemolytic activity at 100 mg/L [5]	hemolytic activity compared to polyamine analogs 3 and 15 [5]
CCCCCCCCCCCCCCCCCCCC(=O)NCC1OC(OC2C(O)C(NC(=N)N)CC(NC(=N)N)C2OC2OC(CNC(=N)N)C(O)C(O)C2NC(=N)N)C(O)C1OC1OC(CNC(=N)N)C(O)C(O)C1NC(=N)N.O=C(O)C(F)(F)F.O=C(O)C(F)(F)F.O=C(O)C(F)(F)F.O=C(O)C(F)(F)F.O=C(O)C(F)(F)F.O=C(O)C(F)(F)F (centres unmarked) [Compound 11]	4 µg/mL	64 µg/mL	128 µg/mL	64 µg/mL	128 µg/mL	128 µg/mL	64 µg/mL	2 µg/mL	32 µg/mL	32 µg/mL	32 µg/mL	4 µg/mL	82%		
CCCCCCCCCCCC(=O)NC[C@H]1O[C@@H](O[C@@H]2[C@@H](O)[C@H](N)C[C@H](N)[C@H]2O[C@H]2O[C@H](CN)[C@@H](O)[C@H](O)[C@H]2N)[C@H](O)[C@@H]1O[C@H]1O[C@@H](CN)[C@@H](O)[C@H](O)[C@H]1N.O=C(O)C(F)(F)F.O=C(O)C(F)(F)F.O=C(O)C(F)(F)F.O=C(O)C(F)(F)F.O=C(O)C(F)(F)F.O=C(O)C(F)(F)F [Compound 2]	8 µg/mL	128 µg/mL	256 µg/mL	64 µg/mL	64 µg/mL	128 µg/mL	256 µg/mL			32 µg/mL	>256 µg/mL	4 µg/mL			
CCCCCC(=O)NCC1OC(OC2C(O)C(NC(=N)N)CC(NC(=N)N)C2OC2OC(CNC(=N)N)C(O)C(O)C2NC(=N)N)C(O)C1OC1OC(CNC(=N)N)C(O)C(O)C1NC(=N)N.O=C(O)C(F)(F)F.O=C(O)C(F)(F)F.O=C(O)C(F)(F)F.O=C(O)C(F)(F)F.O=C(O)C(F)(F)F.O=C(O)C(F)(F)F (centres unmarked) [Compound 8, 1,3,2′,6′,2′″,6′″-Hexaammonium-guanidinyl-5″-deoxy-5″-N-(hexanoyl)-neomycin hexakis(trifluoroacetate)]	64 µg/mL	>128 µg/mL		128 µg/mL				256 µg/mL		128 µg/mL		64 µg/mL			
CCCCCCCCCCCCCCCCCCCC(=O)NC[C@H]1O[C@@H](O[C@@H]2[C@@H](O)[C@H](N)C[C@H](N)[C@H]2O[C@H]2O[C@H](CN)[C@@H](O)[C@H](O)[C@H]2N)[C@H](O)[C@@H]1O[C@H]1O[C@@H](CN)[C@@H](O)[C@H](O)[C@H]1N.O=C(O)C(F)(F)F.O=C(O)C(F)(F)F.O=C(O)C(F)(F)F.O=C(O)C(F)(F)F.O=C(O)C(F)(F)F.O=C(O)C(F)(F)F [Compound 4]	4 µg/mL	64 µg/mL	128 µg/mL	128 µg/mL	128 µg/mL	64 µg/mL	64 µg/mL			8 µg/mL	8 µg/mL	4 µg/mL		82%	
CCCCCCCCCCCCCCCC(=O)NC[C@H]1O[C@@H](O[C@@H]2[C@@H](O)[C@H](N)C[C@H](N)[C@H]2O[C@H]2O[C@H](CN)[C@@H](O)[C@H](O)[C@H]2N)[C@H](O)[C@@H]1O[C@H]1O[C@@H](CN)[C@@H](O)[C@H](O)[C@H]1N.O=C(O)C(F)(F)F.O=C(O)C(F)(F)F.O=C(O)C(F)(F)F.O=C(O)C(F)(F)F.O=C(O)C(F)(F)F.O=C(O)C(F)(F)F [Compound 3]	2 µg/mL	64 µg/mL	128 µg/mL	32 µg/mL	64 µg/mL		128 µg/mL			4 µg/mL	8 µg/mL	2 µg/mL		56%	
NC[C@@H]1O[C@H](O[C@H]2[C@@H](O)[C@H](O[C@@H]3[C@@H](O)[C@H](N)C[C@H](N)[C@H]3O[C@H]3O[C@H](CN)[C@@H](O)[C@H](O)[C@H]3N)O[C@@H]2CNC(=O)CCCc2ccc3ccc4cccc5ccc2c3c45)[C@H](N)[C@@H](O)[C@@H]1O.O=C(O)C(F)(F)F.O=C(O)C(F)(F)F.O=C(O)C(F)(F)F.O=C(O)C(F)(F)F.O=C(O)C(F)(F)F.O=C(O)C(F)(F)F [Compound 6]	64 µg/mL	>512 µg/mL	>512 µg/mL	32 µg/mL	64 µg/mL	64 µg/mL	256 µg/mL			16 µg/mL	256 µg/mL	2 µg/mL			
C[C@H](CCC(=O)NC[C@H]1O[C@@H](O[C@@H]2[C@@H](O)[C@H](N)C[C@H](N)[C@H]2O[C@H]2O[C@H](CN)[C@@H](O)[C@H](O)[C@H]2N)[C@H](O)[C@@H]1O[C@H]1O[C@@H](CN)[C@@H](O)[C@H](O)[C@H]1N)[C@H]1CC[C@H]2[C@@H]3[C@H](O)C[C@@H]4C[C@H](O)CC[C@]4(C)[C@H]3C[C@H](O)[C@]12C.O=C(O)C(F)(F)F.O=C(O)C(F)(F)F.O=C(O)C(F)(F)F.O=C(O)C(F)(F)F.O=C(O)C(F)(F)F.O=C(O)C(F)(F)F [Compound 7]	16 µg/mL	>256 µg/mL	>256 µg/mL	32 µg/mL	64 µg/mL	64 µg/mL	128 µg/mL			16 µg/mL	128 µg/mL	8 µg/mL			
CC(C)c1cc(C(C)C)c(S(=O)(=O)OCC2OC(OC3C(NC(=O)OC(C)(C)C)CC(NC(=O)OC(C)(C)C)C(OC4OC(CNC(=O)OC(C)(C)C)C(O)C(O)C4O)C3O)C(O)C(NC(=O)OC(C)(C)C)C2O)c(C(C)C)c1 (centres unmarked) [Compound 17, 6″-(2,4,6-Triisopropylbenzenesulfonyl)-1,3,6′,3″-tetra-N-(tert-butoxycarbonyl)kanamycin A]															reduced hemolytic activity
NC[C@H]1O[C@H](O[C@H]2[C@H](O)[C@@H](O[C@H]3O[C@H](CO)[C@@H](O)[C@H](N)[C@H]3O)[C@H](N)C[C@@H]2N)[C@H](O)[C@@H](O)[C@@H]1O [Kanamycin A, reference compound]	128 µg/mL (≈ 264 µM)	8 µg/mL (≈ 16.5 µM)	>512 µg/mL	8 µg/mL (≈ 16.5 µM)	16 µg/mL (≈ 33 µM)	32 µg/mL (≈ 66 µM)	>512 µg/mL			4 µg/mL (≈ 8.26 µM)	>512 µg/mL	2 µg/mL (≈ 4.13 µM)	<0.4%		
CCCCC/C=C\C/C=C\CCCCCCCC(=O)NC[C@H]1O[C@@H](O[C@@H]2[C@@H](O)[C@H](N)C[C@H](N)[C@H]2O[C@H]2O[C@H](CN)[C@@H](O)[C@H](O)[C@H]2N)[C@H](O)[C@@H]1O[C@H]1O[C@@H](CN)[C@@H](O)[C@H](O)[C@H]1N.O=C(O)C(F)(F)F.O=C(O)C(F)(F)F.O=C(O)C(F)(F)F.O=C(O)C(F)(F)F.O=C(O)C(F)(F)F.O=C(O)C(F)(F)F [Compound 5]	4 µg/mL	128 µg/mL	256 µg/mL	128 µg/mL	64 µg/mL	128 µg/mL	128 µg/mL			16 µg/mL	32 µg/mL	4 µg/mL			
